The numbers were not newly measured in US8362260B2, “Crystalline forms of dexlansoprazole” (Dipharma Francis S.r.l., priority 2009, dated 2013), which cites them from elsewhere.

For this series the following is noted: in vivo.

Turning to `Cc1c(OCC(F)(F)F)ccnc1C[S@@+]([O-])c1nc2ccccc2[nH]1` [Dexlansoprazole in amorphous form, (R)-2-[[[3-methyl-4(2,2,2-trifluoroethoxy)-2-piridyl]methyl]sulphinyl]benzimidazole], the bioavailability result is given as “greater bioavailability”.
